Data from patent US20040202652A1, “Methods and compositions for control of bone formation via modulation of leptin activity” (Baylor College of Medicine, priority 1999, published 2004).
Entries after “also recorded” stand apart in the source; their conditions may differ.

Tests used:
ob/ob mice [1] = assay: 17 β-estradiol pellet treatment to correct hypogonadism of ob/ob mice; format: in vivo
Experimental: (§1) Histologic analysis was performed on undecalcified sections stained with the von Kossa reagent and counterstained with Kernechtrot. In 3 and 6 month-old mice the presence of many more thick trabeculae in the bones of ob/ob mice compared to those of wild-type mice was observed (FIG. 1B). The cortical bone was not affected. Histomorphometric quantification according to standard techniques were performed (Parfitt et al., 1987, J Bone Min Res 2, 595-610) using the Osteomeasure Analysis System (Osteometrics, Atlanta). Statistical differences between groups (n=4 to 6) were assessed by Student's test. […] The functional consequences of this increase in bone mass were analyzed by comparing the biomechanical properties of long bones of 6 month-old ob/ob mice, wild-type mice, and wild-type mice that have been ovariectomized (wild-type-ovx) for 4 months to mimic the hypogonadic state of the ob/ob mice. An assay in which femora were tested to failure by three-point bending on a servo-hydrolic testing machine (Zwick GmbH & Co.) at a constant displacement rate of 10 mm/min was used to determine failure load, which is a measure of the strength of the bones. […] Analysis of the bones of the db/db mice that have an inactivating mutation of the leptin receptor was also performed (Tartaglia et al., 1995, Cell 83, 1263-1271). Like the ob/ob mice, the db/db mice are obese and hypogonadic. There was an increase in the number of trabeculae in both long bones and vertebrae similar to that observed in ob/ob mice (FIG. IE) resulting in a 3-fold increase in bone volume compared to wild-type mice (FIG. 1F).
Nevertheless, to address this point more thoroughly the hypogonadism of the ob/ob mice was exploited. Hypogonadism normally leads to an increase in osteoclasts number and in bone resorptive activity. Thus, if the osteoclasts of the ob/ob mice were functional, correcting the hypogonadism of these mice should decrease their rate of bone resorption by diminishing the number of osteoclasts and thereby should further increase their bone mass. On the other hand, if the osteoclasts of the ob/ob mice were not functioning properly, correcting their hypogonadism should not affect the severity of their high bone mass phenotype. To determine which of these two possibilities was correct, 17 β-estradiol or placebo pellets (Innovative Research of America) were implanted subcutaneously in 2-month-old female ob/ob mice to maintain a serum concentration of 250 pg/mL. These animals were analyzed after a 3-month treatment period.

Stat3 phosphorylation = assay: Western blot analysis of Stat3 phosphorylation in primary osteoblast cultures; format: cell-based, mice
Experimental: (§2) Expression of leptin in osteoblasts was studied in subconfluent primary osteoblast cultures from wild-type mice which were maintained for 4 days in 10% FBS mineralization medium and then subsequently switched to 0.5% for 2 days and replaced daily. Medium was replaced 2 hours before a 20 min treatment with 80 ng/mL leptin (Sigma) or 40 ng/mL Oncostatin M (R&D Diagnostics) or vehicle. RNA extractions were performed using Triazol (Gibco). Northern blots were performed with 15 μg of total RNA according to methods well known in the art.
To determine whether or not leptin could transduce its signal in osteoblasts, serum-starved primary osteoblasts isolated from wild-type mice were treated with leptin. […]
(§3) The phosphorylation of Stat3, a downstream effector of leptin signaling in its target cells (Tartaglia et al., 1995, Cell 83, 1263-1271; Baumann et al., 1996, Proc Natl Acad Sci USA 93, 8374-8378; Ghilardi et al., 1996, Proc Nati Acad Sci USA 93, 6231-6235; Vaisse et al., 1996, Nat Genet 14, 95-97), was monitored, in addition to the expression of two immediate early genes whose transcription is increased following leptin treatment of target cells (Elmquist et al., 1997, Endocrinology 138, 839-842). […]

Tis11 and c-fos genes = assay: Northern blot analysis of immediate early gene expression in primary osteoblast cultures; format: cell-based, mice; details: 20 min treatment
Experimental: as §2
as §3, with “839-842). As a positive control oncostatin-M that induces Stat3 phosphorylation and activates the expression of the same two immediate early genes in osteoblasts (Levy et al., 1996, Endocrinology 137, 1159-1165) was utilized. Western blot analysis was performed to determine Stat3 phosphorylation as follows.” for “839-842).”

[2] = system: primary osteoblast cultures from wild-type mice; assay: long-term leptin treatment of primary osteoblast cultures (van Gieson and von Kossa staining); format: cell-based; details: 1.2 μg/mL for 5 days, versus control (vehicle) cultures
Experimental: To determine whether or not leptin could transduce its signal in osteoblasts, serum-starved primary osteoblasts isolated from wild-type mice were treated with leptin. Primary osteoblast cultures from calvaria of newborn wild-type or db/db mice were established as previously described (Ducy et al., 1999, Genes Dev 13, 1025-1036) and maintained in mineralization medium (αMEMI 0.1 mg/mL ascorbic acid; 5 mM […]) supplemented with 10% […]. Cultures of mutant cells were maintained in this medium for 15 days before analysis. Cultures derived from wild-type mice were maintained for 10 days in this medium then the percentage of serum was reduced to 0.5% and the medium supplemented with 1.2 μg/mL leptin (Sigma) or vehicle for 5 days.
Finally, the effect of a long-term leptin treatment of primary osteoblast cultures from wild-type mice on extracellular matrix synthesis and bone matrix mineralization was determined. The presence of a collagen-rich extracellular matrix and of mineralization nodules was assessed by whole-mount staining of the cultures by the van Gieson and von Kossa reagent, respectively. No difference was observed when assessing collagen synthesis or mineralization nodule formation between control and leptin-treated cultures (FIG. 5E).

ob/ob mice [3] = assay: intracerebroventricular infusion of leptin in ob/ob mice, bone histology and histomorphometry; format: in vivo; details: ovariectomized ob/ob mice, third ventricle, 8 ng/hr, 28 days, versus PBS
Experimental: as §1
The increase in bone mass could be due to an increase in osteoblastic bone formation, to a decrease in osteoclastic bone resorption, or to a combination of both abnormalities. To study osteoblast function in vivo, the rate of bone formation was quantified following double labeling with calcein, a marker of newly formed bone (FIG. 3A) as described (Ducy et al., 1999, Genes Dev 13, 1025-1036). Calcein was injected twice at 8 day intervals and animals were sacrificed two days later. In 3 month-old, and 6 month-old ob/ob mice there was a 70% and 60%, respectively, increase of the bone formation rate compared to the one of wild-type littermates (FIG. 3B).
Lastly, the issue of whether leptin binding to its hypothalamic receptor could correct the high bone mass phenotype of the ob/ob mice as it can rescue their obesity phenotype was addressed. To that end pumps delivering either PBS or leptin (8 ng/hr) in the third ventricle of ob/ob mice were inserted as follows. Animals were anesthetized with avertin and placed on a stereotaxic instrument (Stoelting). The calvaria was exposed and a 0.7 mm hole was drilled upon bregma. A 28-gauge cannula (Brain infusion kit U, Alza) was implanted into the third ventricle according to the following coordinates: midline, −0.3 AP, 3 mm ventral (0 point bregma). The cannula was secured to the skull with cyanoacrylate, and attached with Tygon tubing to an osmotic pump (Alza) placed in the dorsal subcutaneous space of the animal. The rate of delivery was 0.25:1/hour (8 ng/hr of leptin (Sigma)) or PBS for 28 days. The dosage has been previously shown to have no effect when administered systemically (Halaas et al., 1997, Proc Nati Acad Sci USA 94, 8878-8883). […]

[4] = serum leptin radioimmunoassay in centrally infused ob/ob mice; format: in vivo; details: after intracerebroventricular infusion, 8 ng/hr, 28 days
Experimental: The coexistence of a high bone mass phenotype and of hypogonadism was so exceptional that it raised the hypothesis that bone resorption might be defective in these mice. The increased urinary elimination of deoxypyridinoline crosslinks (Dpd), a biochemical marker of bone resorption (Eyre et al., 1988, Biochem 252, 494-500), in the ob/ob mice argued against this hypothesis (wild-type: 10.5±2.5 nM Dpd/mM creatinine; ob/ob: 24.0 b 4.0 nM Dpd/mM creatinine). Deoxypyridinoline crosslinks were measured in morning urines using the Pyrilinks-D immunoassay kit (Metra Biosystem). Creatinine values were used for standardization between samples (Creatinine kit, Metra Biosystem). Circulating concentration of […] and leptin were quantified by radioimmunoassays, using the third generation estradiol kit (Diagnostic system laboratories) and the mouse leptin RIA kit (Linco), respectively. […] Coadministration of an estrogen analog with an Ob or ObR inhibitor further increases the high bone mass phenotype.
Lastly, the issue of whether leptin binding to its hypothalamic receptor could correct the high bone mass phenotype of the ob/ob mice as it can rescue their obesity phenotype was addressed. […]

[5] = 8 ng/hr dosage, systemic; cited from earlier work
[6] = end of the 3-month treatment period
[7] = female ob/ob mice, subcutaneous pellets, 3-month treatment

Molecule: C[C@]12CC[C@@H]3c4ccc(O)cc4CC[C@H]3[C@@H]1CC[C@@H]2O [17 β-estradiol]
- increase in bone volume, treated ob/ob mice compared to estradiol-treated wild-type mice (ob/ob mice [1]; [6]): 50%
- increase in bone volume, treated ob/ob mice compared to untreated wild-type mice (ob/ob mice [1]; [6]): 3 fold
- correction of hypogonadism (aspect of uteri, levels of estradiol in blood) (ob/ob mice [1]; [7]): correction of the uterus atrophy
- high bone mass phenotype compared to placebo treated ob/ob mice (ob/ob mice [1]; [7]): further increase of the high bone mass phenotype
- osteoclast number (ob/ob mice [1]; [7]): normalization of the osteoclast number
- correction of hypogonadism (aspect of uteri, levels of estradiol in blood) (ob/ob mice [1]; female ob/ob mice, subcutaneous pellets, 3-month treatment, listed as estradiol): corrected their hypogonadism
- bone trabeculae, histological analysis of vertebrae (ob/ob mice [1]; treated wt and even more treated ob/ob mice): significant increase in bone trabeculae

Molecule: leptin: endogenous polypeptide product of an ob gene; polypeptide hormone (Sigma)
- Stat3 phosphorylation, several doses (Stat3 phosphorylation; several doses, physiologic and supraphysiologic): failed to induce
- expression of Tis11 and c-fos (Tis11 and c-fos genes): not
- collagen synthesis (van Gieson staining) [2]: No difference; also recorded: No effect
- matrix mineralization / mineralization nodule formation (von Kossa staining) [2]: No difference; also recorded: No effect
- bone appearance, classical histology (ob/ob mice [3]): regained a normal appearance
- bone formation rates (ob/ob mice [3]): significantly decreased
- bone volume (ob/ob mice [3]): significantly decreased
- number of trabeculae (ob/ob mice [3]): fewer trabeculae
- trabeculae thickness (ob/ob mice [3]): significantly decreased
- leptin in the serum [4]: No leptin
- effect of the dosage when administered systemically [5]: no effect

B1: Oncostatin-M: positive control that induces Stat3 phosphorylation and immediate early gene expression in osteoblasts (protein, UniProt P13725 26-221, looked up)
Oncostatin-M: AAIGSCSKEYRVLLGQLQKQTDLMQDTSRLLDPYIRIQGLDVPKLREHCRERPGAFPSEETLRGLGRRGFLQTLNATLGCVLHRLADLEQRLPKAQDLERSGLNIEDLEKLQMARPNILGLRNNIYCMAQLLDNSDTAEPTKAGRGASQPPTPTPASDAFQRKLEGCRFLHGYHRFMHSVGRVFSKWGESPNRSRR
- Stat3 phosphorylation (Stat3 phosphorylation; primary osteoblasts from wild-type mice, serum-starved): did induce
- expression of Tis11 and c-fos (Tis11 and c-fos genes): quickly and transiently activated
